According to patent US7799775B2, “Pyrimidine derivatives” (ASKA Pharmaceutical Co., Ltd., priority 2004, dated 2010):

Key:
[1] = target: T1, 5-HT1A receptor (Rattus norvegicus, UniProt P19327); experiment: Measurement of 5-HT1A receptor agonistic action on rats (in vivo): lower lip retraction and flat body posture; details: SD male rats, 10 mg/kg intraperitoneal; maximum of group evaluation points, 4 grades 0-3, observed 5-30 min after administration
T1 construct: from tissue; host or cells: whole animal (SD male rats), behavioural read-out
T1 sequence (P19327 1-422): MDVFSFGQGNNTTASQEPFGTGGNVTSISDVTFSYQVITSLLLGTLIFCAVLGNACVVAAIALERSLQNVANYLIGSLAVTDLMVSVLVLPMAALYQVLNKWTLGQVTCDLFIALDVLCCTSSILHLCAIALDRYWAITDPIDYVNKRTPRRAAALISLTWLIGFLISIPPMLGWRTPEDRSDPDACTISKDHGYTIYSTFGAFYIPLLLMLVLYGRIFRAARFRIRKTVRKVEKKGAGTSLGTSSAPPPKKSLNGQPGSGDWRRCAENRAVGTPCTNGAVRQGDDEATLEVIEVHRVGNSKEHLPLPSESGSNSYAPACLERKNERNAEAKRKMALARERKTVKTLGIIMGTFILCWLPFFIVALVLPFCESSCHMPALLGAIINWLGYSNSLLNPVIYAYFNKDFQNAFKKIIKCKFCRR
Description: (3) Measurement of 5-HT1A Receptor Agonistic Action on Rats (in Vivo):
Seven weeks old SD male rats were divided into 4-5 rats per group which were accustomized to the experimental environments twice. A week after the second accustomization, the rats were put into a transparent plastic case, and 10 mg/kg of a test compound (as dissolved in 1N-hydrochloric acid and diluted with suitable amount of saline) was intraperitoneally administered thereto. Immediately before the administration and 5, 10, 20 and 30 minutes after the administration, behaviors of the rats were observed as to lower lip retraction (LLP) and flat body posture (FBP). The results were evaluated in 4 grades (0: no reaction, 1: feeble reaction, 2: medium reaction, 3: maximum reaction).

[2] = target: T2, human 5-HT1A receptor (Homo sapiens, UniProt P08908); experiment: Affinity measurement of the compounds to human 5-HT1A receptor (in vitro), [3H]8-OH-DPAT binding; details: test compound 100 nmols/L; [3H]8-OH-DPAT 0.25 nmols/L; CHO cell membrane expressing human 5-HT1A receptor; read-out: Percent Inhibition (%) on Each Receptor's Binding at 10^−7M, 5-HT1A
T2 construct: purchased Packard Bioscience; host or cells: CHO cells (membrane preparation)
T2 sequence (P08908 1-422): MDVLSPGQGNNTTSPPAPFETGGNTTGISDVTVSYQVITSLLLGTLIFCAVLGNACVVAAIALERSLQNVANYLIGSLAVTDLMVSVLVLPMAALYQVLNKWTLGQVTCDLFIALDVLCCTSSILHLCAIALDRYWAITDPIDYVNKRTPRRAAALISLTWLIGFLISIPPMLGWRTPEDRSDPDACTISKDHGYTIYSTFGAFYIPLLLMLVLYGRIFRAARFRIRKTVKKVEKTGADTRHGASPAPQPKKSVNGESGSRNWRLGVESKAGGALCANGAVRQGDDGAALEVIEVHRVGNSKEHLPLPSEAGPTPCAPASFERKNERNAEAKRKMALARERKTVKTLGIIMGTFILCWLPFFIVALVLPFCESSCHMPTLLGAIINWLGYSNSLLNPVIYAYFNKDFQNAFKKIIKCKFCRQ
Outline: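 Membranes from CHO cells expressing human 5-HT1A were incubated 60 min at 27 °C with 0.25 nmol/L [3H]8-OH-DPAT and compound in Tris/MgSO4/EDTA/ascorbate buffer, pH 7.4. Bound radioactivity was collected on PEI-soaked GF/C filters and counted; percent inhibition was corrected for non-specific binding defined with 10 μmol/L 8-OH-DPAT.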

Row | SMILES | 5-HT1A Receptor Agonistic Action on Rats, FBP [1] | 5-HT1A Receptor Agonistic Action on Rats, LLR [1] | inhibition at 0.1 µM [2] [%]
1 | Clc1ccc2ccnc(N3CCNCC3)c2c1 [Production Example 49, 7-chloro-1-piperazin-1-ylisoquinoline] | 1.8 | 2.2 | 88.7
2 | Nn1c(CCCCN2CCN(c3ccc4ccccc4n3)CC2)nc2cccc(Cl)c2c1=O [Example 4-25, 3-amino-5-chloro-2-[4-(4-quinolin-2-ylpiperazin-1-yl)butyl]-3H-quinazolin-4-one] | 1.0 | 0.8 | 99.4
3 | c1cc2ccsc2c(N2CCN3CCC[C@H]3C2)n1 [Production Example 103, 7-((8aS)-octahydropyrrolo[1,2-a]pyrazin-2-yl)thieno[2,3-c]pyridine] | 0.4 | 3.0 | 91.4
4 | COc1ccc2ccnc(N3CCN4CCC[C@H]4C3)c2c1 [Production Example 72, 1-((8aS)-octahydropyrrolo[1,2-a]pyrazin-2-yl)-7-methoxyisoquinoline] | 3.0 | 3.0 | 96.7
5 | COc1ccc2ccnc(N3CCNC(C)C3)c2c1 (centres unmarked) [Production Example 38, 7-methoxy-1-(3-methylpiperazin-1-yl)isoquinoline] |  |  | 94.8
6 | CCn1c(CCCCN2CCN(c3cc(C)c4ccccc4n3)CC2)nc2c(c1=O)CCCC2 [Example 7-7, 3-ethyl-2-[4-[4-(4-methylquinolin-2-yl)piperazin-1-yl]butyl]-5,6,7,8-tetrahydro-3H-quinazolin-4-one] | 2.2 | 2.2 | 96.9
7 | Clc1ccc2ccnc(N3CCN4CCC[C@H]4C3)c2c1 [Production Example 73, 7-chloro-1-((8aS)-octahydropyrrolo[1,2-a]pyrazin-2-yl)isoquinoline] | 2.2 | 2.4 | 98.3
8 | Cc1ccc2ccnc(N3CCN(C)CC3)c2c1 [Production Example 47, 7-methyl-1-(4-methylpiperazin-1-yl)isoquinoline] |  |  | 90.6
9 | Nn1c(CCCCN2CCN(c3ccc4ccccc4n3)CC2)nc2ccccc2c1=O [Example 4-3, 3-amino-2-[4-(4-quinolin-2-ylpiperazin-1-yl)butyl]-3H-quinazolin-4-one] | 1.8 | 1.8 | 98.2
10 | Nn1c(CCCCN2CCN(c3ccc4ccccc4n3)CC2)nc2ccsc2c1=O [Example 4-18, 3-amino-2-[4-(4-quinolin-2-ylpiperazin-1-yl)butyl]-3H-thieno[3,2-d]-pyrimidin-4-one] | 2.8 | 2.2 | 98
11 | CN1CCN(c2nccc3ccsc23)CC1 [Production Example 6, 7-(4-methylpiperazin-1-yl)thieno[2,3-c]pyridine] | 2.4 | 2.8 | 90.1
12 | Cn1c(CCCCN2CCN(c3ccc4ccccc4n3)CC2)nc2ccccc2c1=O [Example 7-20, 3-methyl-2-[4-(4-quinolin-2-ylpiperazin-1-yl)butyl]-3H-quinazolin-4-one] | 1.8 | 1.6 | 101
13 | c1cc2sccc2c(N2CCN3CCC[C@H]3C2)n1 [Production Example 104, 4-((8aS)-octahydropyrrolo[1,2-a]pyrazin-2-yl)thieno[3,2-c]pyridine] | 0.2 | 1.6 | 85.5
14 | Nn1c(CCCCN2CCN(c3ccc4ccccc4n3)CC2)nc2c(c1=O)CCCC2 [Example 4-1, 3-amino-2-[4-(4-quinolin-2-ylpiperazin-1-yl)butyl]-5,6,7,8-tetrahydro-3H-quinazolin-4-one] | 1.8 | 1.5 | 101
15 | c1cc2ccsc2c(N2CCN3CCC[C@@H]3C2)n1 [Production Example 108, 7-((8aR)-octahydropyrrolo[1,2-a]pyrazin-2-yl)thieno[2,3-c]pyridine] | 0.4 | 2.4 | 90.6
16 | Cc1cc(N2CCN(CCCCc3nc4ccccc4c(=O)n3N)CC2)nc2ccccc12 [Example 4-4, 3-amino-2-[4-[4-(4-methylquinolin-2-yl)piperazin-1-yl]butyl]-3H-quinazolin-4-one] | 2.6 | 2.8 | 98.7
17 | c1cc2ccoc2c(N2CCN3CCC[C@H]3C2)n1 [Production Example 102, 7-((8aS)-octahydropyrrolo[1,2-a]pyrazin-2-yl)furo[2,3-c]-pyridine] | 3.0 | 3.0 | 95.4
18 | CCn1c(CCCCN2CCN(c3ccc4ccccc4n3)CC2)nc2c(c1=O)CCCC2 [Example 7-2, 3-2-[4-(4-quinolin-2-ylpiperazin-1-yl)butyl]-5,6,7,8-tetrahydro-3H-quinazolin-4-one] | 0.4 | 0.2 | 93.3
19 | Cn1c(CCCCN2CCN(c3ccc4ccccc4n3)CC2)nc2c(c1=O)CCCC2 [Example 7-1, 3-methyl-2-[4-(4-quinolin-2-ylpiperazin-1-yl)butyl]-5,6,7,8-tetrahydro-3H-quinazolin-4-one] | 1.8 | 2.2 | 97.5
20 | Cc1cc2c(N3CCN4CCC[C@H]4C3)nccc2s1 [Production Example 107, 4-((8aS)-octahydropyrrolo[1,2-a]pyrazin-2-yl)-2-methylthieno[3,2-c]-pyridine] | 3.0 | 2.8 | 98.5
21 | Cc1cc(N2CCN(CCCCc3nc4c(c(=O)n3C)CCCC4)CC2)nc2ccccc12 [Example 7-6, 3-methyl-2-[4-[4-(4-methylquinolin-2-yl)piperazin-1-yl]butyl]-5,6,7,8-tetrahydro-3H-quinazolin-4-one] | 2.0 | 2.4 | 97.4
22 | CN1CCN(c2nccc3sccc23)CC1 [Production Example 8, 4-(4-methylpiperazin-1-yl)thieno[3,2-c]pyridine] | 0.8 | 2.0 | 78.3
